Assay results reported in article PMC4519317, “MsmK, an ATPase, Contributes to Utilization of Multiple Carbohydrates and Host Colonization of Streptococcus suis” (PLoS ONE, 2015).

Biological target: MsmK (Streptococcus suis, UniProt A0A0H3N1P0)
Settings: 1 mM ATP, 10 mM MgCl2, 200 mM KCl, 50 mM PIPES/NaOH pH 6.8, 1 mM β-mercaptoethanol, 30°C, 1 h; labelled compound

Chain of MsmK (A0A0H3N1P0 entry or part of it): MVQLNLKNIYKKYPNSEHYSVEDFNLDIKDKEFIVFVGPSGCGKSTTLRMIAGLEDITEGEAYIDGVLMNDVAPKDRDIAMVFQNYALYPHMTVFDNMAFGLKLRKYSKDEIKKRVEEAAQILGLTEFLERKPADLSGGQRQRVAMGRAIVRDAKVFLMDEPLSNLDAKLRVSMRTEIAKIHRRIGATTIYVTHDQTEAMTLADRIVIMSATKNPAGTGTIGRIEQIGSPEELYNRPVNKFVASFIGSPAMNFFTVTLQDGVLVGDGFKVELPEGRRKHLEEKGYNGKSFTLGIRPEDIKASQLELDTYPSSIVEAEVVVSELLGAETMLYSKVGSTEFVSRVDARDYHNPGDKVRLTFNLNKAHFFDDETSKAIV

Nc1ncnc2c1ncn2[C@@H]1O[C@H](COP(=O)(O)OP(=O)(O)OP(=O)(O)O)[C@@H](O)[C@H]1O [ATP]
radiometric TLC of ADP formed from [α-32P]-ATP: ATPase assays showed that the recombinant protein could hydrolyze ATP to ADP
